Active and inactive are the calls of the source. The rule behind the calls is not given here.
Tests used:
Candida albicans [1] = test: Anti-virulence activity against Candida albicans SC5314 assessed as inhibition of fungal filamentation by measuring reduction in hyphae formation in SLAD medium upto 10 uM incubated for 3 to 5 days by stereomicroscopic analysis; type: functional, organism-based; details: time 3-5 day
Candida albicans [2] = test: Anti-virulence activity against Candida albicans SC5314 assessed as inhibition of fungal filamentation by measuring reduction of hyphae formation in YPS plus uridine medium at 1.3 uM incubated for 3 to 5 days by stereomicroscopic analysis; type: functional, organism-based; details: time 3-5 day
Candida albicans [3] = test: Anti-virulence activity against Candida albicans SC5314 assessed as inhibition of fungal filamentation by measuring reduction of hyphae formation in Lee medium at 1.3 uM incubated for 3 to 5 days by stereomicroscopic analysis; type: functional, organism-based; details: time 3-5 day
Candida albicans [4] = test: Anti-virulence activity against 53-75 RFP expressing cells of Candida albicans M137 in hind brain of zebra fish embryo disseminated candidiasis model assessed as reduction in mortality by measuring embryo survival rate treated at 1 hr post-infection and measured on day 4 post infection relative to control; type: functional; details: time 4 day
Candida albicans [5] = test: Anti-virulence activity against Candida albicans SC5314 assessed as inhibition of fungal filamentation by measuring reduction of hyphae formation in Spider medium at 1.3 uM incubated for 3 to 5 days by stereomicroscopic analysis; type: functional, organism-based; details: time 3-5 day
Candida albicans [6] = test: Anti-virulence activity against 53-75 RFP expressing cells of Candida albicans M137 in hind brain of zebra fish embryo disseminated candidiasis model assessed as inhibition of fungal filamentation by measuring reduction of hyphae formation in the hind brain at 2.5 to 10 uM treated at 1 hr post-infection and measured on day 4 post infection by fluorescence microscopy; type: functional; set-up: scale not given: the % may be the effect or the level left; details: dose 2.5-10 µM, time 4 day
Candida albicans [7] = test: Anti-virulence activity against Candida albicans SC5314 assessed as inhibition of fungal filamentation by measuring reduction of hyphae formation in RPMI medium at 1.3 uM incubated for 3 to 5 days by stereomicroscopic analysis; type: functional, organism-based; details: time 3-5 day
Candida albicans [8] = test: Anti-virulence activity 53-75 RFP expressing cells of Candida albicans M137 in hind brain of zebra fish embryo disseminated candidiasis model assessed as reduction in mortality by measuring embryo survival rate treated at 1 hr post-infection and measured at 48 hrs post infection (reference value: 40%); type: functional
Candida albicans [9] = test: Anti-virulence activity against Candida albicans SC5314 assessed as inhibition of fungal filamentation by measuring reduction in hyphae formation in Lee medium upto 10 uM incubated for 3 to 5 days by stereomicroscopic analysis; type: functional, organism-based; details: time 3-5 day
Candida albicans [10] = test: Anti-virulence activity against 53-75 RFP expressing cells of Candida albicans M137 in hind brain of zebra fish embryo disseminated candidiasis model assessed as reduction in mortality by measuring embryo survival rate treated at 1 hr post-infection and measured on day 4 post infection (reference value: 10%); type: functional; details: time 4 day
Candida albicans [11] = test: Anti-virulence activity against Candida albicans SC5314 assessed as inhibition of fungal filamentation by measuring reduction in hyphae formation in YPS medium upto 10 uM incubated for 3 to 5 days by stereomicroscopic analysis; type: functional, organism-based; details: time 3-5 day
Candida albicans [12] = test: Anti-virulence activity against Candida albicans SC5314 assessed as inhibition of fungal filamentation by measuring reduction of hyphae formation in RPMI medium upto 10 uM incubated for 3 to 5 days by stereomicroscopic analysis; type: functional, organism-based; details: time 3-5 day
Candida albicans [13] = test: Indifferent antifungal activity against Candida albicans SC5314 assessed as fractional inhibitory concentration index incubated for 24 hrs in RPMI medium in presence of nystatin by checkerboard assay; type: functional
Candida albicans [14] = test: Anti-virulence activity against 120-140 RFP expressing cells of Candida albicans M137 infected in hind brain of zebra fish embryo disseminated candidiasis model assessed as embryo survival rate at 10 uM in presence of 0.25 ug/ml nystatin measured at 120 hpf; type: functional
Candida albicans [15] = test: Anti-virulence activity against Candida albicans SC5314 assessed as inhibition of fungal filamentation by measuring reduction of hyphae formation in SLAD medium at 1.3 uM incubated for 3 to 5 days by stereomicroscopic analysis; type: functional, organism-based; details: time 3-5 day
Candida albicans [16] = test: Anti-virulence activity against Candida albicans SC5314 assessed as inhibition of fungal filamentation by measuring reduction in hyphae formation in Spider medium upto 10 uM incubated for 3 to 5 days by stereomicroscopic analysis; type: functional, organism-based; details: time 3-5 day
[17] = Toxicity against zebrafish embryo infected with 53-75 RFP expressing cells of Candida albicans M137 assessed as mortality at 2.5 to 10 uM treated at 1 hr post-infection and measured on day 4 post-infection; set-up: species or system Danio rerio; details: 96 h, dose 2.5-10 µM, time 4 day
Candida albicans [18] = test: Anti-virulence activity against 120-140 RFP expressing cells of Candida albicans M137 infected in hind brain of zebra fish embryo disseminated candidiasis model assessed as inhibition of fungal filamentation by measuring reduction of fungal hyphae formation at 10 uM in presence of 0.25 ug/ml nystatin measured at 120 hpf; type: functional
Candida albicans [19] = test: Anti-virulence activity against 120-140 RFP expressing cells of Candida albicans M137 expressing infected in hind brain of zebra fish embryo disseminated candidiasis model assessed as inhibition of fungal filamentation by measuring reduction of hyphae formation at 10 uM in presence of 1 ug/ml nystatin measured at 120 hpf; type: functional; set-up: scale not given: the % may be the effect or the level left
Candida albicans [20] = test: Anti-virulence activity against Candida albicans SC5314 assessed as inhibition of fungal filamentation by measuring reduction of hyphae formation in GlcNAc medium at 1.3 uM incubated for 3 to 5 days by stereomicroscopic analysis; type: functional, organism-based; details: time 3-5 day
Candida albicans [21] = test: Anti-virulence activity against 120-140 RFP expressing cells of Candida albicans M137 infected in hind brain of zebra fish embryo disseminated candidiasis model assessed as embryo mortality at 10 uM measured at 120 hpf; type: functional
Candida albicans [22] = test: Anti-virulence activity against Candida albicans SC5314 assessed as inhibition of fungal filamentation by measuring reduction of hyphae formation in YPS medium at 2.5 uM incubated for 3 to 5 days by stereomicroscopic analysis; type: functional; details: time 3-5 day
Candida albicans [23] = test: Anti-virulence activity against Candida albicans SC5314 assessed as inhibition of fungal filamentation by measuring reduction in hyphae formation in GlcNAc medium upto 10 uM incubated for 3 to 5 days by stereomicroscopic analysis; type: functional, organism-based; details: time 3-5 day
Candida albicans [24] = test: Anti-virulence activity against Candida albicans SC5314 assessed as inhibition of fungal filamentation by measuring reduction of hyphae formation in GlcNAc medium at 2.5 uM incubated for 3 to 5 days by stereomicroscopic analysis; type: functional; details: time 3-5 day
[25] = Toxicity in zebrafish embryos assessed as toxic responses at 200 uM treated at 6 hpf and measured at 120 hpf by stereomicroscopic analysis; set-up: species or system Danio rerio; details: in vivo, 24 h
Candida albicans [26] = test: Anti-virulence activity against Candida albicans SC5314 assessed as inhibition of fungal filamentation by measuring reduction of hyphae formation in Spider medium at 2.5 uM incubated for 3 to 5 days by stereomicroscopic analysis; type: functional; details: time 3-5 day
Candida albicans [27] = test: Anti-virulence activity against Candida albicans SC5314 assessed as inhibition of fungal filamentation by measuring reduction in hyphae formation in YPS plus uridine medium upto 10 uM incubated for 3 to 5 days by stereomicroscopic analysis; type: functional, organism-based; details: time 3-5 day
Candida albicans [28] = test: Antifungal activity against Candida albicans SC5314 assessed as inhibition of fungal growth incubated for 24 hrs by broth microdilution assay; type: functional
Candida albicans [29] = test: Anti-virulence activity against 120-140 RFP expressing cells of Candida albicans M137 infected in hind brain of zebra fish embryo disseminated candidiasis model assessed as embryo survival rate upto 10 uM in presence of 0.13 to 1 ug/ml nystatin measured at 120 hpf; type: functional; details: up to 10 µM
[30] = Toxicity in zebrafish embryos assessed as mortality treated at 6 hpf and measured at 120 hpf by stereomicroscopic analysis; set-up: species or system Danio rerio; details: in vivo
Candida albicans [31] = test: Anti-virulence activity against Candida albicans SC5314 assessed as inhibition of fungal filamentation by measuring reduction of hyphae formation in SLAD medium at 2.5 uM incubated for 3 to 5 days by stereomicroscopic analysis; type: functional; details: time 3-5 day
Candida albicans [32] = test: Anti-virulence activity against Candida albicans SC5314 assessed as inhibition of fungal filamentation by measuring reduction of hyphae formation in YPS medium at 1.3 uM incubated for 3 to 5 days by stereomicroscopic analysis; type: functional, organism-based; details: time 3-5 day
[33] = Reduction of nystatin resistance against Candida albicans SC5314 assessed as nystatin MIC at 5 to 10 uM measured after consecutive treatment with nystatin for 12 days; type: functional; details: SC5314, 288 h, dose 5-10 µM

Q: With `Nc1nnnn1CCC12CC3CC(CC(C3)C1)C2` as the molecule, how does the Activity (Candida albicans [1]) read?
A: Active

Q: And the Activity (Candida albicans [2])?
A: Active

Q: What about the Activity (Candida albicans [3]) of the same molecule?
A: Active

Q: What about the “fold change (FC)” value (Candida albicans [4]) of the same molecule?
A: 7

Q: And the Activity (Candida albicans [5])?
A: Active

Q: And the Activity (Candida albicans [6])?
A: 100%

Q: And the Activity (Candida albicans [7])?
A: Active

Q: What about the Survival (Candida albicans [8]) of the same molecule?
A: 50%

Q: What about the Activity (Candida albicans [9]) of the same molecule?
A: Active

Q: And the Survival (Candida albicans [10])?
A: 70%

Q: What about the Activity (Candida albicans [11]) of the same molecule?
A: Active

Q: And the Activity (Candida albicans [12])?
A: Active

Q: What about the “fractional inhibitory concentration index (FICI)” value (Candida albicans [13]) of the same molecule?
A: 1

Q: And the survival at 10 µM (Candida albicans [14])?
A: ≤ 30%

Q: What about the Activity (Candida albicans [15]) of the same molecule?
A: Active

Q: What about the Activity (Candida albicans [16]) of the same molecule?
A: Active

Q: And the Activity [17]?
A: Non-Toxic

Q: What about the inhibition in vivo at 10 µM (Candida albicans [18]) of the same molecule?
A: ≤ 30%

Q: And the Activity (Candida albicans [19])?
A: 100%

Q: What about the Activity (Candida albicans [20]) of the same molecule?
A: Active

Q: And the mortality at 10 µM (Candida albicans [21])?
A: 80%

Q: What about the inhibition at 2.5 µM (Candida albicans [22]) of the same molecule?
A: 100%

Q: What about the Activity (Candida albicans [23]) of the same molecule?
A: Active

Q: What about the inhibition at 2.5 µM (Candida albicans [24]) of the same molecule?
A: 100%

Q: What about the Activity [25] of the same molecule?
A: Non-Toxic

Q: And the inhibition at 2.5 µM (Candida albicans [26])?
A: 100%

Q: What about the Activity (Candida albicans [27]) of the same molecule?
A: Active

Q: And the MIC (Candida albicans [28])?
A: > 200 µM

Q: And the Survival (Candida albicans [29])?
A: <=80%

Q: And the LC50 [30]?
A: > 200 µM

Q: What about the inhibition at 2.5 µM (Candida albicans [31]) of the same molecule?
A: 100%

Q: And the Activity (Candida albicans [32])?
A: Active

Q: What about the MIC [33] of the same molecule?
A: 1 µg/mL
